Data reported in US9273077B2, “Phosphorus derivatives as kinase inhibitors” (ARIAD Pharmaceuticals, Inc., priority 2008, dated 2016).
pIC50: −log10 of the molar value.

Molecular target: T1, ALK (Homo sapiens, UniProt Q9UM73)
T1 construct: Kinases are expressed as either kinase domains or full length constructs fused to glutathione S-transferase (GST) or polyHistidine tagged fusion proteins; made in house; host or cells: E. coli or Baculovirus-High Five (not specified which for ALK)
Assay: inhibitory potency against ALK (kinase inhibition assay)
Format: biochemical
Text: More specifically, the compounds described herein are screened for kinase inhibition activity as follows. Kinases suitable for use in the following protocol include, but are not limited to: ALK, Jak2, b-Raf, c-Met, Tie-2, FLT3, Abl, Lck, Lyn, Src, Fyn, Syk, Zap-70, Itk, Tec, Btk, EGFR, ErbB2, Kdr, FLT1, Tek, InsR, and AKT.
Kinases are expressed as either kinase domains or full length constructs fused to glutathione S-transferase (GST) or polyHistidine tagged fusion proteins in either E. coli or Baculovirus-High Five expression systems. They are purified to near homogeneity by affinity chromatography as previously described (Lehr et al., 1996; Gish et al., 1995). In some instances, kinases are co-expressed or mixed with purified or partially purified regulatory polypeptides prior to measurement of activity.
Kinase activity and inhibition can be measured by established protocols (see e.g., Braunwalder et al., 1996). In such cases, the transfer of ^33PO4 from ATP to the synthetic substrates poly(Glu, Tyr) 4:1 or poly(Arg, Ser) 3:1 attached to the bioactive surface of microtiter plates is taken as a measure of enzyme activity. After an incubation period, the amount of phosphate transferred is measured by first washing the plate with 0.5% phosphoric acid, adding liquid scintillant, and then counting in a liquid scintillation detector. The IC50 is determined by the concentration of compound that causes a 50% reduction in the amount of ^33P incorporated onto the substrate bound to the plate.
For example, in one method, compounds can be tested for their ability to inhibit kinase activity of baculovirus-expressed ALK using a modification of the ELISA protocol reported for trkA in Angeles, T. S. et al., Anal. Biochem. 1996, 236, 49-55, which is incorporated herein by reference. Phosphorylation of the substrate, phopholipase C-gamma (PLC- ? ) generated as a fusion protein with glutathione-S-transferase (GST) as reported in rotin, D. et al., EMBO J. 1992, 11, 559-567, which is incorporated by reference, can be detected with europium-labeled anti-phosphotyrosine antibody and measured by time-resolved fluorescence (TRF). […] Detection of the phosphorylated product can be performed by adding 100 ? L/well of Eu-N1 labeled PT66 antibody (Perkim Elmer #AD0041). Incubation at 37 degrees C. then proceeds for one hour, followed by addition of 100 ? L enhancement solution (for example Wallac #1244-105). The plate is gently agitated and after thirty minutes, the fluorescence of the resulting solution can be measured (for example using EnVision 2100 (or 2102) multilabel plate reader from Perkin Elmer).
Data analysis can then be performed. IC50 values can be calculated by plotting percent inhibition versus log10 of concentration of compound.
The inhibition of ALK tyrosine kinase activity can also be measured using the recombinant kinase domain of the ALK in analogy to VEDG-R kinase assay described in J. Wood et al., Cancer Res 2000, 60, 2178-2189. In vitro enzyme assays using GST-ALK protein tyrosine kinase can be performed in 96-well plate as a filter binding assay in 20 mMTris.HCl, pH 7.5, 3 mM MgCl2, 10 mM MnCl2, […], 0.1 ? Ci/assay (=30 ? L) [ ? -^33P]-ATP, 2 ? M ATP, 3 ? g/mL poly (Glu, tyr 4:1) Poly-EY (sigma P-0275), 1% DMSO, 25 ng ALK enzyme. Assays can be incubated for 10 min, at ambient temperature. Reactions can be terminated by adding 50 ? L of 125 mM EDTA, and the reaction mixture can be transferred onto a MAIP Multiscreen plate (Millipore, Bedford, Mass.) previously wet with methanol, and rehydrated for 5 minutes with water. Following washing (0.5% H3PO4), plates can be counted in a liquid scintillation counter. IC50 values are calculated by linear regression analysis of the percentage inhibition.

T1 sequence (Q9UM73 19-1620): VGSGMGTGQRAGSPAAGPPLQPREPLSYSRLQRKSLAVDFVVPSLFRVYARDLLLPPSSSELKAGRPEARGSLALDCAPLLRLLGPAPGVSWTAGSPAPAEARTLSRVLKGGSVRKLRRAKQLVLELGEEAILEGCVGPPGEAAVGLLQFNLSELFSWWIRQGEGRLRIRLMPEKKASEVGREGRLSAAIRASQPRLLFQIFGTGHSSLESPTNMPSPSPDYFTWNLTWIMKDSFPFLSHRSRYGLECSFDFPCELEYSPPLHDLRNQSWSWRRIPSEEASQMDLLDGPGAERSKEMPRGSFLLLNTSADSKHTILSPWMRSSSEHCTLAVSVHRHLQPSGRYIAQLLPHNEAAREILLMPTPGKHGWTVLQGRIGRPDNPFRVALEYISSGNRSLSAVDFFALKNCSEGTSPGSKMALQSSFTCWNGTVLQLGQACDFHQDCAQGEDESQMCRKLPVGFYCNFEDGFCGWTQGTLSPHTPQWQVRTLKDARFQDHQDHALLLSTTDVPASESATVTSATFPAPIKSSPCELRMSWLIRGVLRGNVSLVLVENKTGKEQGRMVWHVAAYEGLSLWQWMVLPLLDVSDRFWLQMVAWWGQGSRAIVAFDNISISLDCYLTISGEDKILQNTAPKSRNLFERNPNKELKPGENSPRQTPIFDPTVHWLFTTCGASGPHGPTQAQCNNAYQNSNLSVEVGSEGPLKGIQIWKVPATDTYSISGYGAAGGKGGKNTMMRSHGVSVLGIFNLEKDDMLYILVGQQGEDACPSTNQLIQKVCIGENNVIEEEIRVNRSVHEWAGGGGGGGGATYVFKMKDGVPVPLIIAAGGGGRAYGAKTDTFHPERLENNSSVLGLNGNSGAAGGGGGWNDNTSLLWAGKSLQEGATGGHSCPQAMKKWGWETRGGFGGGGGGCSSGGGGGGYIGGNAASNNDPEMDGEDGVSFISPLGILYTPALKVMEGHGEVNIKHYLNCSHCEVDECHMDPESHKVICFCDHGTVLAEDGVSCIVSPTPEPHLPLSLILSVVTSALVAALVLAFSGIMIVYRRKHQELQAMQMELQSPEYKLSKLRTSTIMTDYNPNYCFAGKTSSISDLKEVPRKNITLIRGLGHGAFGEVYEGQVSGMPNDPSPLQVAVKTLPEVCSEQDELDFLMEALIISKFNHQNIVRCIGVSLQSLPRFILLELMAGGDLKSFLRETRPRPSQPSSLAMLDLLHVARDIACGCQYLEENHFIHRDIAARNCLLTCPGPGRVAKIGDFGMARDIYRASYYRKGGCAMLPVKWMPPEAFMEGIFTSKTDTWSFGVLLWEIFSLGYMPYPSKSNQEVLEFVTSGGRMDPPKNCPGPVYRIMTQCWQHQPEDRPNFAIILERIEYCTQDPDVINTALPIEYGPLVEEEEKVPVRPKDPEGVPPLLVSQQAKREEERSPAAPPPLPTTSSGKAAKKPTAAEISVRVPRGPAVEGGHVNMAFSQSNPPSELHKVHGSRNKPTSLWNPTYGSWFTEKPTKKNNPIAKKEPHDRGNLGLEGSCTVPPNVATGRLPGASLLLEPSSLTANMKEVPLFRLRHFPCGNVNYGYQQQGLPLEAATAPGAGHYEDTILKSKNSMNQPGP

Compound	pIC50
CP(C)(=O)c1ccc(Nc2ncc(C(F)(F)F)c(NCCc3c[nH]c4ccccc34)n2)cc1 [Example 10, N^2-[4-(dimethylphosphoryl)phenyl]-N^4-[2-(1H-indol-3-yl)ethyl]-5-(trifluoromethyl)pyrimidine-2,4-diamine]	< 8.00
CP(C)(=O)c1ccc(Nc2ncc(C(F)(F)F)c(NN3CC4CCCC4C3)n2)cc1 (stereo not drawn) [Example 7, N^2-[4-(dimethylphosphoryl)phenyl]-N^4-(hexahydrocyclopenta[c]pyrrol-2(1H)-yl)-5-(trifluoromethyl)pyrimidine-2,4-diamine]	< 8.00
COc1cc(P(C)(C)=O)ccc1Nc1ncc(N)c(Nc2ccccc2S(=O)(=O)C(C)C)n1 [Example 28, N^2-[4-(dimethylphosphoryl)-2-methoxyphenyl]-N^4-[2-(propan-2-ylsulfonyl)phenyl]pyrimidine-2,4,5-triamine]	< 8.00
COc1nc(P(C)(C)=O)cnc1Nc1ncc(Cl)c(Nc2ccccc2S(=O)(=O)C(C)C)n1 [Example 33, 5-chloro-N^2-[5-(dimethylphosphoryl)-3-methoxypyrazin-2-yl]-N^4-[2-(propan-2-ylsulfonyl)phenyl]pyrimidine-2,4-diamine]	< 8.00
CN1CCN(Nc2nc(Nc3ccc(P(C)(C)=O)cc3)ncc2C(F)(F)F)CC1 [Example 11, N^2-[4(dimethylphosphoryl)phenyl]-N^4-(4-methylpiperazin-1-yl)-5-(trifluoromethyl) pyrimidine-2,4-diamine]	< 8.00
COc1cc(P(C)(C)=O)ccc1Nc1ncc2[nH]c(=O)n(-c3ccccc3S(=O)(=O)C(C)C)c2n1 [Example 29, 2-{[4-(dimethylphosphoryl)-2-methoxyphenyl]amino}-9-[2-(propan-2-ylsulfonyl)phenyl]-7,9-dihydro-8H-purin-8-one]	< 8.00
COc1cc(N2CCC(N3CCN(C)CC3)CC2)ccc1Nc1ncc(Cl)c(Nc2ccc(P(C)(C)=O)cc2)n1 [Example 19, 5-chloro-N^4-[4-(dimethylphosphoryl)phenyl]-N^2-{2-methoxy-4-[4-(4-methylpiperazin-1-yl)piperidin-1-yl]phenyl}pyrimidine-2,4-diamine]	< 8.00
COc1cc(P(C)(C)=O)ccc1Nc1nccc(Nc2ccccc2S(=O)(=O)C(C)C)n1 [Example 20, N^2-[4-(dimethylphosphoryl)-2-methoxyphenyl]-N^4-[2-(propan-2-ylsulfonyl)phenyl]pyrimidine-2,4-diamine]	< 8.00
Cc1cc(C)cc(Nc2nc(Nc3ccc(P(C)(C)=O)cc3)ncc2C(F)(F)F)c1 [Example 14, N^4-(3,5-dimethylphenyl)-N^2-[4-(dimethylphosphoryl)phenyl]-5(trifluoromethyl)pyrimidine-2,4-diamine]	< 8.00
COc1cc(P(C)(C)=O)ccc1Nc1ncc(Cl)c(Nc2ccccc2)n1 [Example 15, 5-chloro-N^2-[4-(dimethylphosphoryl)-2-methoxyphenyl]-N^4-phenylpyrimidine-2,4-diamine]	< 8.00
COc1cc(P(C)(C)=O)ccc1Nc1ncc(C(F)(F)F)c(Nc2ccccc2S(=O)(=O)C(C)C)n1 [Example 16, N^2-[4-(dimethylphosphoryl)-2-methoxyphenyl]-N^4-[2-(propan-2-ylsulfonyl)phenyl]-5-(trifluoromethyl)pyrimidine-2,4-diamine]	8.00 to 8.70
CN1CCN(c2ccc(CNc3nc(Nc4ccc(P(C)(C)=O)cc4)ncc3C(F)(F)F)cc2)CC1 [Example 13, N^2-[4-(dimethylphosphoryl)phenyl]-N^4-[4-(4-methylpiperazin-1-yl)benzyl]-5-(trifluoromethyl)pyrimidine-2,4-diamine]	< 8.00
CP(C)(=O)c1ccc(Nc2ncc(C(F)(F)F)c(NC34CC5CC(CC(C5)C3)C4)n2)cc1 [Example 2, N^2-[4-(dimethylphosphoryl)phenyl]-N′-(tricyclo[3.3.1.1^3,7]dec-1-yl)-5-(trifluoromethyl)pyrimidine-2,4-diamine]	< 8.00

Results, then the compound that gave them:

pIC50	Compound
> 8.70	COc1nc(P(C)(C)=O)ccc1Nc1ncc(Cl)c(Nc2ccccc2S(=O)(=O)C(C)C)n1 [Example 32, 5-chloro-N^2-[6-(dimethylphosphoryl)-2-methoxypyridin-3-yl]-N^4-[2-(propan-2-ylsulfonyl)phenyl]pyrimidine-2,4-diamine]
8.00 to 8.70	CC(C)S(=O)(=O)c1ccccc1Nc1nc(Nc2ccc(P(C)(C)=O)cc2F)ncc1Cl [Example 27, 5-Chloro-N^2-[4-(dimethylphosphoryl)-2-fluorophenyl]-N^4-[2-(propan-2-ylsulfonyl)phenyl]pyrimidine-2,4-diamine]
> 8.70	CC(C)S(=O)(=O)c1ccccc1Nc1nc(Nc2ccc(P(C)(C)=O)cc2OC(F)(F)F)ncc1Cl [Example 25, 5-Chloro-N^2-[4-(dimethylphosphoryl)-2-(trifluoromethoxy)phenyl]-N^4-[2-(propan-2-ylsulfonyl)phenyl]pyrimidine-2,4-diamine]
> 8.70	COc1cc(P(C)(C)=O)ccc1Nc1nc(Nc2ccccc2S(=O)(=O)C(C)C)c2cc[nH]c2n1 [Example 31, N^2-[4-(dimethylphosphoryl)-2-methoxyphenyl]-N^4-[2-(propan-2-ylsulfonyl)phenyl]-7H-pyrrolo[2,3-d]pyrimidine-2,4-diamine]
8.00 to 8.70	COc1ccc(P(C)(C)=O)cc1Nc1ncc(Cl)c(Nc2ccccc2S(=O)(=O)C(C)C)n1 [Example 22, 5-Chloro-N^2-[5-(dimethylphosphoryl)-2-methoxyphenyl]-N^4-[2-(propan-2-ylsulfonyl)phenyl]pyrimidine-2,4-diamine]
8.00 to 8.70	CC(C)S(=O)(=O)c1ccccc1Nc1nc(Nc2ccc(P(C)(C)=O)cc2)ncc1Cl [Example 18, 5-chloro-N^2-[4-(dimethylphosphoryl)phenyl]-N^4-[2-(propan-2-ylsulfonyl)phenyl]pyrimidine-2,4-diamine]
8.00 to 8.70	COc1cc(P(C)(C)=O)ccc1Nc1ncc(C)c(Nc2ccccc2S(=O)(=O)C(C)C)n1 [Example 21, N^2-[4-(Dimethylphosphoryl)-2-methoxyphenyl]-5-methyl-N^4-[2-(propan-2-ylsulfonyl)phenyl]pyrimidine-2,4-diamine]
> 8.70	COc1cc(P(C)(C)=O)ccc1Nc1ncc(Cl)c(Nc2ccccc2S(=O)(=O)C(C)C)n1 [Example 17, 5-chloro-N-[4-(dimethylphosphoryl)-2-methoxyphenyl]-N^4-[2-(propan-2-ylsulfonyl)phenyl]pyrimidine-2,4-diamine]
8.00 to 8.70	COc1cc(P2(=O)CCNCC2)ccc1Nc1nccc(Nc2ccccc2S(=O)(=O)C(C)C)n1 [Example 30, N^2-[2-methoxy-4-(4-oxido-1,4-azaphosphinan-4-yl)phenyl]-N^4-[2-(propan-2-ylsulfonyl)phenyl]pyrimidine-2,4-diamine]
> 8.70	CC(C)S(=O)(=O)c1ccccc1Nc1nc(Nc2ccc(P(C)(C)=O)cc2Cl)ncc1Cl [Example 26, 5-Chloro-N^2-[2-chloro-4-(dimethylphosphoryl)phenyl]-N^4-[2-(propan-2-ylsulfonyl)phenyl]pyrimidine-2,4-diamine]
> 8.70	CCc1cc(P(C)(C)=O)ccc1Nc1ncc(Cl)c(Nc2ccccc2S(=O)(=O)C(C)C)n1 [Example 24, 5-Chloro-N^2-[4-(dimethylphosphoryl)-2-ethylphenyl]-N^4-[2-(propan-2-ylsulfonyl)phenyl]pyrimidine-2,4-diamine]
